Results as given in ChEMBL document CHEMBL4316606, “Discovery of novel 2,3-dihydro-1H-inden-1-amine derivatives as selective monoamine oxidase B inhibitors” (Bioorg Med Chem Lett, 2019).

Tests used:
[1] = target: T1, Amine oxidase [flavin-containing] A (Homo sapiens, UniProt P21397); experiment: Inhibition of recombinant human MAOA expressed in baculovirus infected BTI insect cells using p-tyramine as substrate preincubated for 30 mins followed by substrate addition and measured over 15 mins by Amplex red reagent/horseradish peroxidase coupled fluorescence assay
T1 sequence (P21397 whole entry): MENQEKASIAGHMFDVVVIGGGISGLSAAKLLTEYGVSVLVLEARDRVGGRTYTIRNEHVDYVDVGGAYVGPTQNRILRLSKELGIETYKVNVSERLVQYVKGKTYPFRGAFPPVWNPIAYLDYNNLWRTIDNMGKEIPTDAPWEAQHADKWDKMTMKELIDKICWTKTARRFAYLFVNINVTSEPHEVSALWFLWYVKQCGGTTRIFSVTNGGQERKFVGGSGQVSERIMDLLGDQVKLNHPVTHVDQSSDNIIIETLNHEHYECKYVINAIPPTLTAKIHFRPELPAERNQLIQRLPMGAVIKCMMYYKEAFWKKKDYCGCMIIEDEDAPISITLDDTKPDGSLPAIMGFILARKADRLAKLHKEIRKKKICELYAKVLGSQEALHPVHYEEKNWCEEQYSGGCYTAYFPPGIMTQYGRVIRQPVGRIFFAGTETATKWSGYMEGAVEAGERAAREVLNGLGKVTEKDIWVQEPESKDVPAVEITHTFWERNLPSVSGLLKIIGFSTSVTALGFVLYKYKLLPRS

[2] = target: T2, Amine oxidase [flavin-containing] B (Homo sapiens, UniProt P27338); experiment: Inhibition of recombinant human MAOB expressed in baculovirus infected BTI insect cells using p-tyramine as substrate preincubated for 30 mins followed by substrate addition and measured over 15 mins by Amplex red reagent/horseradish peroxidase coupled fluorescence assay
T2 sequence (P27338 whole entry): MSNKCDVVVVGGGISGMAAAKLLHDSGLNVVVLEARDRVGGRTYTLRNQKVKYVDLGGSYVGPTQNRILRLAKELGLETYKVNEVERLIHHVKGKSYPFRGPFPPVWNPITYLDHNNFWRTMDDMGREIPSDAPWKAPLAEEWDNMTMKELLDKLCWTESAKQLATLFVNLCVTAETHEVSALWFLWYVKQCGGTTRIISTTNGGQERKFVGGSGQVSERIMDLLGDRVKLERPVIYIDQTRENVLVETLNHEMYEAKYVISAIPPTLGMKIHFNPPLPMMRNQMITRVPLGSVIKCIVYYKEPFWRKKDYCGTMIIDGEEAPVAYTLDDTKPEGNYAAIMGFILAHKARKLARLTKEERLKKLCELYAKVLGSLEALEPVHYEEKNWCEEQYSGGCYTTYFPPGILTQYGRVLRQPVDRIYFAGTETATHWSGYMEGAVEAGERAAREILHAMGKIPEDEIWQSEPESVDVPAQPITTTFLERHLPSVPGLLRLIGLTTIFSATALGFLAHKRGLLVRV

[3] = species on record: Homo sapiens; experiment: Selectivity index, ratio of IC50 for recombinant human MAOA expressed in baculovirus infected BTI insect cells to IC50 for recombinant human MAOB expressed in baculovirus infected BTI insect cells

| SMILES | IC50 [1] [nM] | IC50 [2] [nM] | Ratio IC50 [3] |
| --- | --- | --- | --- |
| C#CCNC1CCc2c(OCCc3cc(NC(=O)COC(C)=O)ccc3Cl)cccc21 (stereo not drawn) | 436000 | 480 | 909 |
| C#CCNC1CCc2c(OCCc3cc(NC(=O)CO)ccc3Cl)cccc21 (stereo not drawn) | 252000 | 270 | 934 |
| C#CCNC1CCc2c(OCCc3cccc4ccccc34)cccc21 (stereo not drawn) | – | 1900 | – |
| C#CCNC1CCc2c(SCc3ccc(C(C)(C)C)cc3)cccc21 (stereo not drawn) | – | > 20000 | – |
| C#CCNC1CCc2c(OCCc3cccc(NC(=O)c4ccc(Cl)cc4)c3)cccc21 (stereo not drawn) | – | 360 | – |
| C#CCNC1CCc2c(NCc3cccc(F)c3)cccc21 (stereo not drawn) | – | 1860 | – |
| C#CCNC1CCc2c(NCc3ccc(F)cc3)cccc21 (stereo not drawn) | – | 980 | – |
| C#CCNC1CCc2c(OCCc3cc(NC(=O)c4ccccc4)ccc3Cl)cccc21 (stereo not drawn) | – | > 20000 | – |
| C#CCNC1CCc2c(OCCc3cc(NC(=O)C(C)(C)C)ccc3F)cccc21 (stereo not drawn) | – | > 20000 | – |
| C#CCNC1CCc2c(OCCc3cc(NC(=O)c4ccc(F)cc4)ccc3Cl)cccc21 (stereo not drawn) | – | 5100 | – |
| C#CCNC1CCc2c(NCc3cccc(Br)c3)cccc21 (stereo not drawn) | 94300 | 110 | 857 |
| C#CCNC1CCc2c(NCc3ccc(C)cc3)cccc21 (stereo not drawn) | 43100 | 250 | 172 |
| C#CCNC1CCc2c(OCCc3cc(NC(C)=O)ccc3Cl)cccc21 (stereo not drawn) | 85200 | 590 | 144 |
| C#CCNC1CCc2c(OCCc3cc(NC(=O)c4ccc(Cl)cc4)ccc3Cl)cccc21 (stereo not drawn) | – | > 20000 | – |
| C#CCNC1CCc2c(SCc3ccc(Cl)cc3)cccc21 (stereo not drawn) | 230 | 180 | 1.2 |
| C#CCNC1CCc2c(OCc3cccc(F)c3)cccc21 (stereo not drawn) | – | 2700 | – |
| C#CCNC1CCc2c(NCc3cccc(C)c3)cccc21 (stereo not drawn) | – | 710 | – |
| C#CCNC1CCc2c(SCc3ccc(F)cc3)cccc21 (stereo not drawn) | < 100 | 240 | – |
| C#CCNC1CCc2c(OCCc3cc(NC(=O)c4cccc(F)c4)ccc3Cl)cccc21 (stereo not drawn) | – | > 20000 | – |
| C#CCNC1CCc2c(NCc3ccccc3)cccc21 (stereo not drawn) | – | > 20000 | – |
